In patent US20170348258A1, “3-Amino Benzamide Derivative Serving As B-Lactam Auxiliary Antibiotic, Preparation Method and Use Thereof” (THE HONG KONG POLYTECHNIC UNIVERSITY, priority 2014, published 2017):

Tests used:
Assay in all cases: FICI of F332 with antibiotics
Assay type in all cases: cell-based, S. aureus
MRSA strain 2490 = system: MRSA strain 2490
MRSA strain 254 = system: MRSA strain 254
MRSA strain 256 = system: MRSA strain 256
MRSA strain 2516 = system: MRSA strain 2516
MRSA strain 2224 = system: MRSA strain 2224
MRSA strain 200 = system: MRSA strain 200
MRSA strain 2973 = system: MRSA strain 2973
MRSA strain 85 = system: MRSA strain 85

## CCCCCCCCCNc1ccc(F)c(C(N)=O)c1F [Compound F332, 2,6-difluoro-3-(nonylamino)benzamide]
MRSA strain 2490
  FICI of F332 combined with Amoxicillin: 0.56
  FICI of F332 combined with Cefuroxime: 0.19
  FICI of F332 combined with Cloxacillin: 0.56
  FICI of F332 combined with Meropenem: 2.25
  FICI of F332 combined with Meticillin: 0.25
MRSA strain 254
  FICI of F332 combined with Amoxicillin: 0.56
  FICI of F332 combined with Cefuroxime: 0.25
  FICI of F332 combined with Cloxacillin: 0.19
  FICI of F332 combined with Meropenem: 1.50
  FICI of F332 combined with Meticillin: 0.25
MRSA strain 256
  FICI of F332 combined with Amoxicillin: 0.08
  FICI of F332 combined with Cefuroxime: 0.01
  FICI of F332 combined with Cloxacillin: 0.13
  FICI of F332 combined with Meropenem: 4.01
  FICI of F332 combined with Meticillin: 0.04
MRSA strain 2516
  FICI of F332 combined with Amoxicillin: 0.38
  FICI of F332 combined with Cefuroxime: 0.07
  FICI of F332 combined with Cloxacillin: 0.19
  FICI of F332 combined with Meropenem: 0.38
  FICI of F332 combined with Meticillin: 0.19
MRSA strain 2224
  FICI of F332 combined with Amoxicillin: 0.19
  FICI of F332 combined with Cefuroxime: 0.25
  FICI of F332 combined with Cloxacillin: 0.25
  FICI of F332 combined with Meropenem: 4.01
  FICI of F332 combined with Meticillin: 0.13
MRSA strain 200
  FICI of F332 combined with Amoxicillin: 0.02
  FICI of F332 combined with Cefuroxime: 1.00
  FICI of F332 combined with Cloxacillin: 1.00
  FICI of F332 combined with Meropenem: 8.01
  FICI of F332 combined with Meticillin: 0.25
MRSA strain 2973
  FICI of F332 combined with Amoxicillin: 0.08
  FICI of F332 combined with Cefuroxime: 0.53
  FICI of F332 combined with Cloxacillin: 0.07
  FICI of F332 combined with Meropenem: 4.03
  FICI of F332 combined with Meticillin: 0.28
MRSA strain 85
  FICI of F332 combined with Amoxicillin: 0.04
  FICI of F332 combined with Cefuroxime: 0.25
  FICI of F332 combined with Cloxacillin: 1.00
  FICI of F332 combined with Meropenem: 4.01
  FICI of F332 combined with Meticillin: 0.50
